# Experimental data from patent US20250332139A1, “PS[…] AND THEIR USE FOR TREATING […] AND NE[…] DISORDERS” (Transcend Therapeutics, Inc., priority 2021, published 2025).
# “And” between values parts separate entries of the source, which are not always exact repeats. Equal entries are not always repeated. Where two headings read alike, the source gives them in different places. Marks after values point to notes of the source that are not given here.
# Assays:
# [1] = test system: rats; assay: Open field test (OFT); type: in vivo, rat; conditions: for time spent in the center of the open field: methylone single dose IP 30 min before test (5 or 15 mg/kg in b361; 5-30 mg/kg in b50)
# Description: This behavioral assay, also widely used as an anxiety paradigm, capitalizes on a rodent's innate fear of brightly lit open spaces, which are assumed to induce fear or anxiety. Rodents spend more time hugging the walls of the open field during the test, and these effects correlate to underlying brain regions and mechanisms.
# Method: Consecutive beam breaks and/or video-tracking of time spent in the center versus periphery of the open field are measured. Also measured are parameters such as distance traveled and ambulatory activity (horizontal and vertical) for the duration of the test session.
# The open field test (OFT) capitalizes on a rodent's innate fear of open spaces to assess anxiety-like behavior. More time spent in the center of an open field reflects an anxiolytic (anti-anxiety) effect.
# To investigate whether MBDB has an anti-anxiety (anxiolytic) effect, rats were dosed with MBDB (0.5-30 mg/kg, IP) or vehicle (saline) and 30-minutes later were tested in the open field for 30 minutes. This anxiety test capitalizes on a rodents' innate fear of wide-open spaces and propensity to hug the walls when placed into the open field. Therefore, a drug that increases the time spent in the center of the open field has anxiolytic activity and predicts utility for treating anxiety in humans.
# [2] = target: T1, 168 GPCRs (Homo sapiens, UniProt O43603); assay: β-arrestin GPCR screen (PathHunter/GPCRmax), agonist mode; type: cell-based; conditions: GALR2; Agonist; 1 uM
# T1 construct: host or cells: PathHunter cell lines
# T1 sequence (O43603 whole entry): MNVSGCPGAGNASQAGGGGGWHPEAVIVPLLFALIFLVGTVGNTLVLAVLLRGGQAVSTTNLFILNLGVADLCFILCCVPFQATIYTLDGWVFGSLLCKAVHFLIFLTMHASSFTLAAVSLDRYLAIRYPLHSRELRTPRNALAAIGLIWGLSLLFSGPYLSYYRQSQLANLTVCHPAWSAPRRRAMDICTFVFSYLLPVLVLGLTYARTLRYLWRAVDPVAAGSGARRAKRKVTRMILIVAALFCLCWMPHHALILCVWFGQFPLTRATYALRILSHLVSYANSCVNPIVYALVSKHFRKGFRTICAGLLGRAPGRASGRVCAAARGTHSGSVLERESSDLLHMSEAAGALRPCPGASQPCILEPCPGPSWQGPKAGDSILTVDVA
# Description: (§1) For agonist determination, cells were incubated with sample to induce response. […] Vehicle concentration was 1%.
# [3] = target: T2, 168 GPCRs (Homo sapiens, UniProt P11229); assay: as above; type: cell-based; conditions: CHRM1, Agonist
# T2 construct: host or cells: PathHunter cell lines
# T2 sequence (P11229 whole entry): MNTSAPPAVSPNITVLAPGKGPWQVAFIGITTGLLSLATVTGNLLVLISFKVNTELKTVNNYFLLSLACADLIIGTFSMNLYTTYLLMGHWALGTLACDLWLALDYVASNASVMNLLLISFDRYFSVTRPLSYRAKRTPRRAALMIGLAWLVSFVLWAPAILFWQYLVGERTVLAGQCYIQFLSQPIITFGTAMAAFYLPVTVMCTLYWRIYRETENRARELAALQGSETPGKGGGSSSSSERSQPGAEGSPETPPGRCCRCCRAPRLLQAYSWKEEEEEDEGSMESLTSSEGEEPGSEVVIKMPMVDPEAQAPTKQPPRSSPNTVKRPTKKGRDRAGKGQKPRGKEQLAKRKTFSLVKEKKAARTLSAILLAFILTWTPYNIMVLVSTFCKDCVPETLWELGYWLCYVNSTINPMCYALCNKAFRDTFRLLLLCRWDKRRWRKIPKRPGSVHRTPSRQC
# Description: as §1
# [4] = target: T3, 168 GPCRs (Homo sapiens, UniProt P21917); assay: as above; type: cell-based; conditions: GPCR DRD4; Agonist mode; 10 uM
# T3 construct: host or cells: PathHunter cell lines
# Description: as §1
# [5] = target: T4, 168 GPCRs (Homo sapiens, UniProt P23945); assay: as above; type: cell-based; conditions: GPCR FSHR; Agonist mode; 10 uM
# T4 construct: host or cells: PathHunter cell lines
# T4 sequence (P23945 18-695): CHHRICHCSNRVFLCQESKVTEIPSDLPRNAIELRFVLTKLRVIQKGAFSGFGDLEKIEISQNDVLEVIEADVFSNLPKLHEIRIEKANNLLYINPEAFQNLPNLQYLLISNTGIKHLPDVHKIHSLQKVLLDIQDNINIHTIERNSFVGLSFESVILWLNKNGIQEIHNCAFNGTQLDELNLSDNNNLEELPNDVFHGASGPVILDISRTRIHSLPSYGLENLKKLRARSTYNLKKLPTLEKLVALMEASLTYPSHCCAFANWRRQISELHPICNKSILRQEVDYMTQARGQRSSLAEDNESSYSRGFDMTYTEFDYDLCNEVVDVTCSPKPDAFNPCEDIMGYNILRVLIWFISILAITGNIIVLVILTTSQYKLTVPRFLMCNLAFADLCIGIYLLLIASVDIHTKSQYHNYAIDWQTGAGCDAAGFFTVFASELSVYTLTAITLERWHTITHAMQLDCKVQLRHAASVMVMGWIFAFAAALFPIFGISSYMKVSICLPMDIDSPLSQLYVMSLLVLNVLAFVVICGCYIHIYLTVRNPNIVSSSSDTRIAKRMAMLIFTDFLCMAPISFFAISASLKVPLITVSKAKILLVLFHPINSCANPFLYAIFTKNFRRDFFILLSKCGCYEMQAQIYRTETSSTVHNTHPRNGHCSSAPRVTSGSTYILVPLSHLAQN
# Description: as §1
# [6] = target: T5, 168 GPCRs (Homo sapiens, UniProt P25021); assay: as above; type: cell-based; conditions: GPCR HRH2; Agonist mode; 10 uM
# T5 construct: host or cells: PathHunter cell lines
# T5 sequence (P25021 whole entry): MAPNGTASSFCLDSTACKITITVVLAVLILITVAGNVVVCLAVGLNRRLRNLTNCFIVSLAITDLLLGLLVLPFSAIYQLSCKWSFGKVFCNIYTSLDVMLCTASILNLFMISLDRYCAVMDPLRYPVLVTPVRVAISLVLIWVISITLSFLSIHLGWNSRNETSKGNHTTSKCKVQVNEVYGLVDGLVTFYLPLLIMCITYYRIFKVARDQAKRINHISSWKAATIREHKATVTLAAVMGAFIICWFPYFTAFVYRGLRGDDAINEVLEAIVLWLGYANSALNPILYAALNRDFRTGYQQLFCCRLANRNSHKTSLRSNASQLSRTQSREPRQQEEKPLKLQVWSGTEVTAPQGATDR
# Description: as §1
# [7] = target: T6, 168 GPCRs (Homo sapiens, UniProt P25024); assay: as above; type: cell-based; conditions: GPCR CXCR1; Agonist mode; 10 uM
# T6 construct: host or cells: PathHunter cell lines
# T6 sequence (P25024 whole entry): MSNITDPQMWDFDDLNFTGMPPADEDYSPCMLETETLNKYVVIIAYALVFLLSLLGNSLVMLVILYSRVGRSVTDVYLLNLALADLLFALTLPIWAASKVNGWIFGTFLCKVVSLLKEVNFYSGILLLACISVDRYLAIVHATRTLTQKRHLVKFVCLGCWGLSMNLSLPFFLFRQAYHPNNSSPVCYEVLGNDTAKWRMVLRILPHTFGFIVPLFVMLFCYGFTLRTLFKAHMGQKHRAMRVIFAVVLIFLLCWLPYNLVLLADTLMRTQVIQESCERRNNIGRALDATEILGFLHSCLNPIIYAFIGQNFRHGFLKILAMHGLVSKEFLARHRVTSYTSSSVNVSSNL
# Description: as §1
# [8] = target: T7, 168 GPCRs (Homo sapiens, UniProt P25116); assay: as above; type: cell-based; conditions: F2R; Agonist; 1 uM
# T7 construct: host or cells: PathHunter cell lines
# T7 sequence (P25116 22-425): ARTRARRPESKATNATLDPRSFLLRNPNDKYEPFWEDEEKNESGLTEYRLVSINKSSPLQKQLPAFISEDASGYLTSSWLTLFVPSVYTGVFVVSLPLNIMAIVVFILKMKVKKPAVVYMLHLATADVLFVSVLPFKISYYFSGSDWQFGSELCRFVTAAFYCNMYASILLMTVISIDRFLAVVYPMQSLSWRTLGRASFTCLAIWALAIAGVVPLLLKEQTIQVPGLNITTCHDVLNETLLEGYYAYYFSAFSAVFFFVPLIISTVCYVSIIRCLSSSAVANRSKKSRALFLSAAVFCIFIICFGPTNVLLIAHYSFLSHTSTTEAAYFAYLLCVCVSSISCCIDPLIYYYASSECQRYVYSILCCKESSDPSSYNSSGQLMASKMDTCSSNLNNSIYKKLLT
# Description: as §1
# [9] = target: T8, 168 GPCRs (Homo sapiens, UniProt P30411); assay: as above; type: cell-based; conditions: BDKRB2; Agonist; 10 uM
# T8 construct: host or cells: PathHunter cell lines
# Description: as §1
# [10] = target: T9, 168 GPCRs (Homo sapiens, UniProt P32247); assay: as above; type: cell-based; conditions: BRS3; Agonist; 1 uM
# T9 construct: host or cells: PathHunter cell lines
# T9 sequence (P32247 whole entry): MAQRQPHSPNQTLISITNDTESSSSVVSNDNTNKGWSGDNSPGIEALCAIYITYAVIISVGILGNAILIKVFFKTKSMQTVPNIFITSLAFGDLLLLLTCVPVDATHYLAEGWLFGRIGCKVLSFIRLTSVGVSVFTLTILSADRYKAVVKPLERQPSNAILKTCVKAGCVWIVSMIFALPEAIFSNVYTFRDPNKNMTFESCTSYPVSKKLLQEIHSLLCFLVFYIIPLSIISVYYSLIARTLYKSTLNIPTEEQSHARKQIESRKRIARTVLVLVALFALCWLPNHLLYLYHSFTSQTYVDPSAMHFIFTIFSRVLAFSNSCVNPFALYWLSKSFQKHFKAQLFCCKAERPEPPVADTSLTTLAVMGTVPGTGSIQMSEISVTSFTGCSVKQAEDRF
# Description: as §1
# [11] = target: T10, 168 GPCRs (Homo sapiens, UniProt P48145); assay: as above; type: cell-based; conditions: GPCR NPBWR1; Agonist mode; 10 uM
# T10 construct: host or cells: PathHunter cell lines
# T10 sequence (P48145 whole entry): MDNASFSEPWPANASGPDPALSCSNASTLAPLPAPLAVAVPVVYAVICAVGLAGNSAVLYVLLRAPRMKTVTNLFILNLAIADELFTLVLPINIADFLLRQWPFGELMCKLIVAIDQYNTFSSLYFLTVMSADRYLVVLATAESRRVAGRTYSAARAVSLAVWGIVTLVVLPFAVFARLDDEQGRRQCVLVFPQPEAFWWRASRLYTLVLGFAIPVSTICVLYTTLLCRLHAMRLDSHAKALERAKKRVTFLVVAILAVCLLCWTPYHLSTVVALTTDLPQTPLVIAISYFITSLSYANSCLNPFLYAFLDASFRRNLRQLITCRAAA
# Description: as §1
# [12] = target: T11, 168 GPCRs (Homo sapiens, UniProt P48546); assay: as above; type: cell-based
# T11 construct: host or cells: PathHunter cell lines
# T11 sequence (P48546 22-466): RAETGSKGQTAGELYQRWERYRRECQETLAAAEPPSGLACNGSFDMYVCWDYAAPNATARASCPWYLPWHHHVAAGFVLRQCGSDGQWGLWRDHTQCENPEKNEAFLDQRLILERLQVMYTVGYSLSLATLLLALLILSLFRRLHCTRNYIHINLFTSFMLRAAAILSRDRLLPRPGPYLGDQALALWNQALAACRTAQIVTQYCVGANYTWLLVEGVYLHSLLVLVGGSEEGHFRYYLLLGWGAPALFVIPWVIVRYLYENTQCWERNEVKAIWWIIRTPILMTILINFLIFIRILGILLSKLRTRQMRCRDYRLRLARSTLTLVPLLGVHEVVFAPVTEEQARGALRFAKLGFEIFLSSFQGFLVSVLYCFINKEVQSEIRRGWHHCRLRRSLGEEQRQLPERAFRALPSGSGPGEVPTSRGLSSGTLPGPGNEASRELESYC
# Description: as §1
# [13] = target: T12, 168 GPCRs (Homo sapiens, UniProt P51582); assay: as above; type: cell-based
# T12 construct: host or cells: PathHunter cell lines
# T12 sequence (P51582 whole entry): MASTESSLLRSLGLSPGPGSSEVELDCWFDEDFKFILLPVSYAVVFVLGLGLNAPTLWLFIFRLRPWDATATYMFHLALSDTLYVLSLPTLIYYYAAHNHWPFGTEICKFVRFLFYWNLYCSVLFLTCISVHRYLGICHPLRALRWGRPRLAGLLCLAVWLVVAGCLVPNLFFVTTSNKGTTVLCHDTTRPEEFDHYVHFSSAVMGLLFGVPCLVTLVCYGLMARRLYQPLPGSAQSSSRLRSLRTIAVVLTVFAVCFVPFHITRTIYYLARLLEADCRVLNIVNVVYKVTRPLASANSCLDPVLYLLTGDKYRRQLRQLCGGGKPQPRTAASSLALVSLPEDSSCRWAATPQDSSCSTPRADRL
# Description: as §1
# [14] = target: T13, 168 GPCRs (Homo sapiens, UniProt P51677); assay: as above; type: cell-based; conditions: CCR3; Agonist; 1 uM
# T13 construct: host or cells: PathHunter cell lines
# T13 sequence (P51677 whole entry): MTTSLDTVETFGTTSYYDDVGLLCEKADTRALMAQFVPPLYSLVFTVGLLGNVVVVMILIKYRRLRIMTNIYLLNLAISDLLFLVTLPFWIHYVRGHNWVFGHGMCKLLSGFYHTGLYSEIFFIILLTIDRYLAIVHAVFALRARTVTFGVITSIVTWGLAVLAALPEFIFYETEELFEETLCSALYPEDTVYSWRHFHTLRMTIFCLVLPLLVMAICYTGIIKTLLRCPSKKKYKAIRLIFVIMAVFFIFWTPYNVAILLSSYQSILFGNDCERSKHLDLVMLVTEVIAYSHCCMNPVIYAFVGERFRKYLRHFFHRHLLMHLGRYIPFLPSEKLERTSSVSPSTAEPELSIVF
# Description: as §1
# [15] = target: T14, 168 GPCRs (Homo sapiens, UniProt P51679); assay: as above; type: cell-based; conditions: CCR4; Agonist; 10 uM
# T14 construct: host or cells: PathHunter cell lines
# T14 sequence (P51679 whole entry): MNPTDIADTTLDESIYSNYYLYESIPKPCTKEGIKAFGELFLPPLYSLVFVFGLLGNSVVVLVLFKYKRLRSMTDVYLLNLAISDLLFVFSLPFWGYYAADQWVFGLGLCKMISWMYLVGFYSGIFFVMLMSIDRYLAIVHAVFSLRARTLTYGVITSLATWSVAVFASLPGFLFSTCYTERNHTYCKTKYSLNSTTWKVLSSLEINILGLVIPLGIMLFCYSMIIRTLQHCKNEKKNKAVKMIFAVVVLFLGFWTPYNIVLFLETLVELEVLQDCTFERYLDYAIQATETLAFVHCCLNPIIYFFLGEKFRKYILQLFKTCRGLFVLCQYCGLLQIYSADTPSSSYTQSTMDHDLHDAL
# Description: as §1
# [16] = test system: patients with PTSD or MDD; healthy subjects; assay: Methylone case series (outpatient, CGI-S/CGI-I); type: in vivo, human
# Description: CGI-S scale was also evaluated in a subset of patients from Cohort 2 post-treatment. Cohort 2 was evaluated for any observed or reported safety events following a single dosing session.
# Clinical Global Impressions (CGI) scale includes 2 components: CGI-S(“severity”) and CGI-I (“improvement”).
# No protected health information was disclosed, and no consent was obtained from patients for use of their archival data. Case narratives were systematically compiled from data collected as part of routine clinical work. Diagnoses were confirmed by an experienced clinician using semi-structured interviews. Baseline symptom severity was evaluated using the Clinical Global Impressions Scale-Severity (CGI-S). Symptom improvement was evaluated using the Clinical Global Impressions Scale-Improvement (CGI-I) following dosing. […] Because these case narratives were examined retrospectively from routine clinical care records, and not gathered prospectively in a research study, more specific validated rating scales for assessing PTSD symptoms were not available. Additionally, follow-up varied, with the length of follow-up ranging from one week (Case 2) to 15 years (Case 16).
# [17] = cited from earlier work
smiles,measurement,setting,value
"CNC(C)C(=O)c1ccc2c(c1)OCO2 (stereo not shown) [methylone, 3,4-methylenedioxy-N-methylcathinone]",locomotor activity in OFT,[1]; methylone 15 or 30 mg/kg IP,significant increase in locomotor activity
same,time spent in the center of the open field,[1],significantly increases the time spent in the center
same,time spent in the center of the open field,[1]; listed as Methylone,significantly increased center time
same,activity at 1 µM,[2],-3.4%
same,activity at 1 µM,[3]; 1 uM,-3.1%
same,activity at 10 µM,[3]; 10 uM,-8.5%
same,activity at 10 µM,[4],-9.4%
same,activity at 10 µM,[5],-2.2%
same,activity at 10 µM,[6],-2.8%
same,activity at 10 µM,[7],-0.1%
same,activity at 1 µM,[8],-2.5%
same,activity at 10 µM,[9],-2.9%
same,activity at 1 µM,[10],-4.5%
same,activity at 10 µM,[11],~-1%
same,activity at 1 µM,"[12]; GIPR, Agonist, 1 uM",~-2%
same,activity at 10 µM,"[12]; GPCR GIPR, Agonist mode, 10 uM",~-5%
same,activity at 10 µM,"[13]; GPCR P2RY4, Agonist mode, 10 uM",-4.1%
same,activity at 1 µM,"[13]; P2RY4, Agonist, 1 uM",~-3%
same,activity at 1 µM,[14],-0.7%
same,activity at 10 µM,[15],-1.4%
same,adverse effects,"[16]; Cohort 1, 4 healthy subjects, total dose 790-870 mg in one session",no adverse effects or after-effects were observed or reported
same,patients with initial improvement at first methylone session,[16]; Cohort 2 (25 of 28 patients),~90%
same,Number of cases with highest observed CGI-I 1,"[16]; Cohort 2, N = 28",11*
same,Number of cases with highest observed CGI-I 2,"[16]; Cohort 2, N = 28",13
same,Number of cases with highest observed CGI-I 3,"[16]; Cohort 2, N = 28",4
same,Number of cases with highest observed CGI-I 4,"[16]; Cohort 2, N = 28",0
same,Number of cases with highest observed CGI-I 5,"[16]; Cohort 2, N = 28",0
same,Number of cases with highest observed CGI-I 6,"[16]; Cohort 2, N = 28",0
same,Number of cases with highest observed CGI-I 7,"[16]; Cohort 2, N = 28",0
same,number of patients achieving a CGI-I of 1 or 2,"[16]; Example 5, 21 PTSD patients",17 patients
same,tolerability,"[16]; Example 5, 21 PTSD patients, oral 100 to 1,020 mg",generally well tolerated
same,Best CGI-S post-treatment,"[16]; individual cases, Cohort 2",1 and 4 and 2 and 3
same,CGI-S max change from BL,"[16]; individual cases, Cohort 2",−3 (4×) and −4
same,"AUC24 hr, Mean","[17]; 50 mg oral, N = 3","(989, 4.5%) hr*μg/L"
same,"AUCinf, Mean","[17]; 50 mg oral, N = 3","(1063, 6.9%) hr*μg/L"
same,"Cmax, Mean","[17]; 50 mg oral, N = 3","(153.0, 18.9%) μg/L"
same,"Half-life, Mean","[17]; 50 mg oral, N = 3","(6.3, 15%) hr"
same,"AUC10 hr, Mean","[17]; 100 mg oral, N = 6","(1586, 23.1%) hr*μg/L"
same,"AUC24 hr, Mean","[17]; 100 mg oral, N = 6","(2268, 20.4%) hr*μg/L"
same,"AUCinf, Mean","[17]; 100 mg oral, N = 6","(2444, 18.3%) hr*μg/L"
same,"Cmax, Mean","[17]; 100 mg oral, N = 6","(303.6, 45%) μg/L"
same,"Half-life, Mean","[17]; 100 mg oral, N = 6","(6.1, 23.3%) hr"
same,"Tmax, Min-Max","[17]; 100 mg oral, N = 6",(0.75-3) hr
same,"AUC10 hr, Mean","[17]; 150 mg oral, N = 5","(2236, 29.0%) hr*μg/L"
same,"AUC24 hr, Mean","[17]; 150 mg oral, N = 5","(3349, 36.5%) hr*μg/L"
same,"AUCinf, Mean","[17]; 150 mg oral, N = 5","(3777, 42.2%) hr*μg/L"
same,"Cmax, Mean","[17]; 150 mg oral, N = 5","(354.6, 30.7%) μg/L"
same,"Half-life, Mean","[17]; 150 mg oral, N = 5","(6.8, 23.3%) hr"
same,"Tmax, Min-Max","[17]; 150 mg oral, N = 5",(1.5-4) hr
same,"AUC10 hr, Mean","[17]; 200 mg oral, N = 7","(3310, 17.9%) hr*μg/L"
same,"AUC24 hr, Mean","[17]; 200 mg oral, N = 7","(4796, 23.2%) hr*μg/L"
same,"AUCinf, Mean","[17]; 200 mg oral, N = 7","(5267, 25.1%) hr*μg/L"
same,"Cmax, Mean","[17]; 200 mg oral, N = 7","(603.6, 20.6%) μg/L"
same,"Half-life, Mean","[17]; 200 mg oral, N = 7","(6.6, 15.1%) hr"
same,"Tmax, Min-Max","[17]; 200 mg oral, N = 7",(1-4) hr
